Measurements as given in US20240091385A1, “METHODS OF ASSESSING SELECTIVE GLUCOCORTICOID RECEPTOR MODULATION AND OF IDENTIFYING AND TREATING PATIENTS LIKELY TO BENEFIT FROM GLUCOCORTICOID RECEPTOR MODULATION” (Corcept Therapeutics Incorporated, priority 2022, published 2024).

Key:
other hormone receptors = settings: cited from earlier work
CLEC10A = assay: Whole blood CLEC10A RNA after prednisone in healthy volunteers (NCT03335956); type: in vivo, human
Protocol: This was a Phase 1 single-ascending dose (SAD) and multiple-ascending dose (MAD) study to assess the safety and pharmacological activity of exicorilant. Co-dosing of exicorilant with prednisone 25 mg, and comparison to the effects of prednisone alone, established the pharmacological activity of exicorilant. Only the specimens collected after dosing with prednisone alone were analyzed for the studies described below. Blood was collected in the morning prior to dosing in PAXgene RNA tubes. 4 hours after a dose of prednisone 25 mg, blood was drawn again. […] (Nanostring Technologies, Seattle WA, USA).

[1] = test system: GR target genes in whole blood; assay: Whole blood RNA fold change (NanoString 444-gene panel), randomized phase 2 ovarian cancer study NCT03776812; type: in vivo, human; settings: ovarian phase 2 study, summary statement
Protocol: This phase 2, open-label, randomized, 3-arm study was performed in accordance with the principles of the Declaration of Helsinki, the Good Clinical Practice guidelines of the International Council on Harmonisation, and local regulatory requirements. The protocol was approved by the institutional review board or independent ethics committee at each investigative site. All patients or their legally authorized representatives provided written informed consent. […] Blood (2.5 mL) was drawn into a […] blood RNA tube (Qiagen) using a butterfly needle. The tube was sealed and gently inverted 10 times. The tube was frozen in dry ice and stored at -80° C. until RNA extraction. […] (Nanostring Technologies, Seattle WA, USA). […] For baseline only analyses, gene abundance is reported as normalized counts. Data were analyzed and adjusted P-values (with Benjamini-Yekutieli false discovery rate corrections) were determined in nSolver 4.0 (NanoString Technologies, Seattle, WA). Cross validated random forest techniques were used to derive a gene signature that could distinguish the relacorilant+nab-paclitaxel group from nab-paclitaxel alone ([…], Poland, Study WO5).

SMILES	affinity for other hormone receptors (other hormone receptors)	CLEC10A fold change (CLEC10A; 4 hours after prednisone 25 mg, adj P=6.4×10^−8)	CLEC10A expression in whole blood (CLEC10A; prednisone 25 mg)	CLEC10A expression in whole blood [1]
Cn1ncc(S(=O)(=O)N2CC[C@H]3Cc4c(cnn4-c4ccc(F)cc4)C[C@]3(C(=O)c3cc(C(F)(F)F)ccn3)C2)n1 [exicorilant, ((4aR,8aS)-1-(4-fluorophenyl)-6-((2-methyl-2H-1,2,3-triazol-4-yl)sulfonyl)-4,4a,5,6,7,8,8a,9-octahydro-1H-pyrazolo[3,4-g]isoquinolin-4a-yl)(4-(trifluoromethyl)pyridin-2-yl)methanone]	no affinity	–	–	–
C[C@]12C=CC(=O)C=C1CC[C@@H]1[C@@H]2C(=O)C[C@@]2(C)[C@H]1CC[C@]2(O)C(=O)CO [prednisone]	–	0.37	suppressed	–
Cn1cc(S(=O)(=O)N2CCC3=Cc4c(cnn4-c4ccc(F)cc4)C[C@]3(C(=O)c3cc(C(F)(F)F)ccn3)C2)cn1 [relacorilant, (R)-(1-(4-fluorophenyl)-6-((1-methyl-1H-pyrazol-4-yl)sulfonyl)-4,4a,5,6,7,8-hexahydro-1H-pyrazolo[3,4-g]isoquinolin-4a-yl)(4-(trifluoromethyl)pyridin-2-yl)methanone]	no affinity	–	–	induced
